Assay results reported in ChEMBL document CHEMBL5725708, “Amide derivatives and pharmaceutically acceptable salts thereof, preparation method thereof and medicinal application thereof” (2018).

Molecular target: T1, Prostaglandin E synthase (Homo sapiens, UniProt O14684)
T1 sequence (O14684 whole entry): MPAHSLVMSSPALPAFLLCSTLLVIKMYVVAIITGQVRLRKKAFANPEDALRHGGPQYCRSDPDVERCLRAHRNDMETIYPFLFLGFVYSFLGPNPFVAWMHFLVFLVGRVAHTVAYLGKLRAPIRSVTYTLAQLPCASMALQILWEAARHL
Experiment: mPGES1 enzyme assay: mPGES1 was diluted with assay buffer and added into plate at 49 μL/well supplemented with 1 μL of compound (the final concentration of each compound at seven gradient concentrations was 10000 nM, 1000 nM, 100 nM, 10 nM, 1 nM, 0.1 nM and 0.01 nM). Each well was added with 3.8 μL of 20 μg/mL PGH precooled on ice after shaking for 30 seconds and incubated for 7 minutes on ice. Then, each well was added with 53.8 μL of 6 mg/mL SnCl2 to quench the reaction. The sample was diluted with dilute buffer at 1:400. 10 μl of diluted sample, 5 μL PGE2-d2 and 5 μL anti-PGE2 Cryptate were added to a black 384-well plate, and incubated at 4° C. overnight. HTRF was determined using Flexstation, and the IC50 of the compounds was obtained by data processing software.

CCn1c(-c2ccc(F)cc2)cc2cc(NC(=O)c3cc(CNC(=O)C(C)(C)C)ccc3Br)ccc21
IC50: 6.02 nM
